# Tests used:
# [1] = Therapeutic index, ratio of MHC50 for chicken RBC to MIC99 for Mycobacterium tuberculosis H37Rv; conditions: chicken red blood cells, read-out: TI
# THP-1 = experiment: Cytotoxicity against human THP1 cells after 48 hrs by MTT assay; assay type: cell-based; conditions: THP-1, 48 h
# A549 [2] = experiment: Cytotoxicity against human A549 cells after 48 hrs by MTT assay; assay type: cell-based; conditions: A549, 48 h
# [3] = tested on: Mycobacterium tuberculosis; experiment: Antimycobacterial activity against Mycobacterium tuberculosis H37Rv after 14 days by inverted microscopic analysis; assay type: functional; conditions: 336 h
# [4] = tested on: Mycolicibacterium smegmatis; experiment: Antimycobacterial activity against Mycobacterium smegmatis str. MC2 155 after 2 days by inverted microscopic analysis; assay type: functional; conditions: str. MC2 155, 48 h
# Staphylococcus aureus = experiment: Antibacterial activity against Staphylococcus aureus MTCC 737 after 12 hrs by microplate reader assay; assay type: functional; conditions: MTCC 737, 12 h
# Escherichia coli = experiment: Antibacterial activity against Escherichia coli MTCC 443 after 12 hrs by microplate reader assay; assay type: functional; conditions: MTCC 443, 12 h
# [5] = Therapeutic index, ratio of MHC50 for sheep RBC to MIC99 for Mycobacterium tuberculosis H37Rv; conditions: sheep red blood cells, read-out: TI
# A549 [6] = experiment: Cytotoxicity against human A549 cells assessed as effect on cell cycle phase at 100 uM by propidium iodide staining-based flow cytometry; conditions: a549, 100 µM
Compound,selectivity ratio [1],IC50 (THP-1) [µM],IC50 (A549 [2]) [µM],MIC99 [3] [µM],MIC99 [4] [µM],MIC99 (Staphylococcus aureus) [µM],MIC99 (Escherichia coli) [µM],selectivity ratio [5],Activity (A549 [6])
COC(=O)CC[C@@H](C)[C@H]1CC[C@H]2[C@@H]3[C@H](OC(=O)C[N+](C)(C)C)C[C@@H]4C[C@H](OC(=O)C[N+](C)(C)C)CC[C@]4(C)[C@H]3CC[C@]12C,> 80,142,144,12.5,3.12,512,256,> 80,
NNC(=O)c1ccncc1 [ISONIAZID],,,,0.78,> 50,,,,
COC(=O)CC[C@@H](C)[C@H]1CC[C@H]2[C@@H]3CC[C@@H]4C[C@H](OC(=O)C[N+]5(C)CCCCC5)CC[C@]4(C)[C@H]3CC[C@]12C,> 20,77,42,50,6.25,> 512,> 512,> 20,
COC(=O)CC[C@@H](C)[C@H]1CC[C@H]2[C@@H]3CC[C@@H]4C[C@H](OC(=O)C[n+]5ccc(N(C)C)cc5)CC[C@]4(C)[C@H]3CC[C@]12C,> 20,86,112,50,12.5,> 512,> 512,> 20,
COC(=O)CC[C@@H](C)[C@H]1CC[C@H]2[C@@H]3CC[C@@H]4C[C@H](OC(=O)C[N+](C)(C)C)CC[C@]4(C)[C@H]3CC[C@]12C,> 20,62,69,50,6.25,> 512,> 512,> 20,
COC(=O)CC[C@@H](C)[C@H]1CC[C@H]2[C@@H]3[C@H](OC(=O)C[N+]4(C)CCCCC4)C[C@@H]4C[C@H](OC(=O)C[N+]5(C)CCCCC5)CC[C@]4(C)[C@H]3C[C@H](OC(=O)C[N+]3(C)CCCCC3)[C@]12C.[Cl-].[Cl-].[Cl-],> 40,> 200,> 200,25,6.25,512,> 512,> 40,Non-toxic
COC(=O)CC[C@@H](C)[C@H]1CC[C@H]2[C@@H]3CC[C@@H]4C[C@H](OC(=O)C[N+]5(C)CCCCC5)CC[C@]4(C)[C@H]3C[C@H](OC(=O)C[N+]3(C)CCCCC3)[C@]12C,> 160,77,50,6.25,0.78,128,> 512,> 160,
COC(=O)CC[C@@H](C)[C@H]1CC[C@H]2[C@@H]3[C@H](OC(=O)CN)C[C@@H]4C[C@H](OC(=O)CN)CC[C@]4(C)[C@H]3CC[C@]12C,< 20,13.7,14.8,> 50,> 50,128,64,< 20,
COC(=O)CC[C@@H](C)[C@H]1CC[C@H]2[C@@H]3[C@H](OC(=O)C[n+]4ccc(N(C)C)cc4)C[C@@H]4C[C@H](OC(=O)C[n+]5ccc(N(C)C)cc5)CC[C@]4(C)[C@H]3CC[C@]12C,> 320,137,154,3.12,0.78,128,128,> 320,
COC(=O)CC[C@@H](C)[C@H]1CC[C@H]2[C@@H]3CC[C@@H]4C[C@H](OC(=O)CN)CC[C@]4(C)[C@H]3C[C@H](OC(=O)CN)[C@]12C,< 20,14,14.7,> 50,> 50,64,16,< 20,
C[C@H]1COc2c(N3CCN(C)CC3)c(F)cc3c(=O)c(C(=O)O)cn1c23 [LEVOFLOXACIN],,,,0.78,0.58,,,,
COC(=O)CC[C@@H](C)[C@H]1CC[C@H]2[C@@H]3CC[C@@H]4C[C@H](OC(=O)CN)CC[C@]4(C)[C@H]3CC[C@]12C,< 20,14,24.6,> 50,> 50,> 512,> 512,< 20,
COC(=O)CC[C@@H](C)[C@H]1CC[C@H]2[C@@H]3[C@H](OC(=O)C[N+](C)(C)C)C[C@@H]4C[C@H](OC(=O)C[N+](C)(C)C)CC[C@]4(C)[C@H]3C[C@H](OC(=O)C[N+](C)(C)C)[C@]12C.[Cl-].[Cl-].[Cl-],> 20,80,> 200,50,12.5,> 512,> 512,> 20,Non-toxic
COC(=O)CC[C@@H](C)[C@H]1CC[C@H]2[C@@H]3CC[C@@H]4C[C@H](OC(=O)C[n+]5ccc(N(C)C)cc5)CC[C@]4(C)[C@H]3C[C@H](OC(=O)C[n+]3ccc(N(C)C)cc3)[C@]12C,> 213,63,50,4.68,0.78,64,64,> 213,
COC(=O)CC[C@@H](C)[C@H]1CC[C@H]2[C@@H]3CC[C@@H]4C[C@H](OC(=O)C[n+]5ccccc5)CC[C@]4(C)[C@H]3CC[C@]12C,< 20,89,68,> 50,25,> 512,> 512,< 20,
C[C@H](CCC(=O)O)[C@H]1CC[C@H]2[C@@H]3[C@H](O)C[C@@H]4C[C@H](O)CC[C@]4(C)[C@H]3C[C@H](O)[C@]12C [CHOLIC ACID],,,,,,,,,Non-toxic
COC(=O)CC[C@@H](C)[C@H]1CC[C@H]2[C@@H]3CC[C@@H]4C[C@H](OC(=O)C[n+]5ccccc5)CC[C@]4(C)[C@H]3C[C@H](OC(=O)C[n+]3ccccc3)[C@]12C,> 80,124,78,12.5,1.56,> 512,128,> 80,
COC(=O)CC[C@@H](C)[C@H]1CC[C@H]2[C@@H]3CC[C@@H]4C[C@H](OC(=O)C[N+](C)(C)C)CC[C@]4(C)[C@H]3C[C@H](OC(=O)C[N+](C)(C)C)[C@]12C,< 20,105,157,> 50,12.5,256,256,< 20,
COC(=O)CC[C@@H](C)[C@H]1CC[C@H]2[C@@H]3[C@H](OC(=O)C[N+]4(C)CCCCC4)C[C@@H]4C[C@H](OC(=O)C[N+]5(C)CCCCC5)CC[C@]4(C)[C@H]3CC[C@]12C,> 80,164,79,12.5,1.56,256,128,> 80,
COC(=O)CC[C@@H](C)[C@H]1CC[C@H]2[C@@H]3[C@H](OC(=O)C[n+]4ccccc4)C[C@@H]4C[C@H](OC(=O)C[n+]5ccccc5)CC[C@]4(C)[C@H]3CC[C@]12C,> 40,> 200,168,25,3.12,256,128,> 40,
COC(=O)CC[C@@H](C)[C@H]1CC[C@H]2[C@@H]3[C@H](OC(=O)C[n+]4ccccc4)C[C@@H]4C[C@H](OC(=O)C[n+]5ccccc5)CC[C@]4(C)[C@H]3C[C@H](OC(=O)C[n+]3ccccc3)[C@]12C.[Cl-].[Cl-].[Cl-],> 26,> 200,> 200,37.5,3.12,> 512,> 512,> 26,Non-toxic
